{"source": "patent US20170190671A1", "about": "“BIS(ARYL)CATECHOL DERIVATIVES AS HERBICIDES” (E I DU PONT DE NEMOURS AND COMPANY, priority 2014, published 2017)", "test_in_all_cases": "Test C preemergence", "type_in_all_cases": "in vivo", "key": {"[1]": {"tested_on": "corn (Zea mays)", "details": "Zea mays, pre-emergence, 336 h, scale 0 to 100", "procedure,_shortened": "(§1)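 Seeds in loam-sand soil were treated preemergence, and plants at the 1- to 4-leaf stage (2-18 cm) in peat-based medium were sprayed postemergence, with test chemicals in a non-phytotoxic solvent containing surfactant. After 13-15 days in a greenhouse, response was rated visually against controls from 0 (no effect) to 100 (complete control).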"}, "[2]": {"tested_on": "barnyardgrass (Echinochloa crus-galli)", "details": "Echinochloa crus-galli, pre-emergence, read-out: Plant response rating, Barnyardgrass", "procedure,_shortened": "as §1"}, "[3]": {"tested_on": "soybean (Glycine max)", "details": "Glycine max, pre-emergence, scale 0 to 100, read-out: Plant response rating, Soybean", "procedure,_shortened": "as §1"}, "[4]": {"tested_on": "velvetleaf (Abutilon theophrasti)", "details": "Abutilon theophrasti, pre-emergence, scale 0 to 100, read-out: Plant response rating, Velvetleaf", "procedure,_shortened": "as §1"}, "[5]": {"tested_on": "johnsongrass (Sorghum halepense)", "details": "Sorghum halepense, pre-emergence, 336 h, scale 0 to 100, read-out: Plant response rating, Johnsongrass", "procedure,_shortened": "as §1"}, "[6]": {"tested_on": "giant foxtail (Setaria faberii)", "details": "Setaria faberi, pre-emergence, 336 h, scale 0 to 100, read-out: Plant response rating, Foxtail, Giant", "procedure,_shortened": "as §1"}, "[7]": {"tested_on": "yellow nutsedge (Cyperus esculentus)", "details": "Cyperus, pre-emergence, 336 h, scale 0 to 100, read-out: Plant response rating, Nutsedge, Yellow", "procedure,_shortened": "as §1"}, "[8]": {"tested_on": "ragweed (common ragweed, Ambrosia elatior)", "details": "Ambrosia artemisiifolia, pre-emergence, 336 h, scale 0 to 100, read-out: Plant response rating, Ragweed", "procedure,_shortened": "as §1"}, "[9]": {"tested_on": "pigweed (Amaranthus retroflexus)", "details": "Amaranthus retroflexus, pre-emergence, 336 h, scale 0 to 100, read-out: Plant response rating, Pigweed", "procedure,_shortened": "as §1"}, "[10]": {"tested_on": "large (Lg) crabgrass (Digitaria sanguinalis)", "details": "Digitaria sanguinalis, pre-emergence, 336 h, scale 0 to 100, read-out: Plant response rating, Crabgrass, Large", "procedure,_shortened": "as §1"}, "[11]": {"tested_on": "lambsquarters (Chenopodium album)", "details": "Chenopodium album, pre-emergence, 336 h, scale 0 to 100, read-out: Plant response rating, Lambsquarters", "procedure,_shortened": "as §1"}, "[12]": {"tested_on": "winter wheat (Triticum aestivum)", "details": "Triticum aestivum, pre-emergence, 336 h, scale 0 to 100, read-out: Plant response rating, Wheat", "procedure,_shortened": "as §1"}, "[13]": {"tested_on": "blackgrass (Alopecurus myosuroides)", "details": "Alopecurus myosuroides, pre-emergence, 336 h, scale 0 to 100, read-out: Plant response rating, Blackgrass", "procedure,_shortened": "as §1"}, "[14]": {"tested_on": "Italian ryegrass (Lolium multiflorum)", "details": "Lolium multiflorum, pre-emergence, 336 h, scale 0 to 100, read-out: Plant response rating, Ryegrass, Italian", "procedure,_shortened": "as §1"}}, "data": [{"compound": "Fc1cnc(Oc2c(F)ccc(F)c2Oc2ncc(F)cn2)nc1", "note": "[Compound 29, 2,2′-[(3,6-difluoro-1,2-phenylene)bis(oxy)]bis[5-fluoropyrimidine]]", "values": [{"measurement": "Corn plant response rating (crop injury, 0 = no effect, 100 = complete kill) at 31 g/ha", "setting": "[1]; 31 g ai/ha, preemergence", "result": 15, "unit": "%"}, {"measurement": "Corn plant response rating (crop injury, 0 = no effect, 100 = complete kill) at 62 g/ha", "setting": "[1]; 62 g ai/ha, preemergence", "result": 25, "unit": "%"}, {"measurement": "Corn plant response rating (crop injury, 0 = no effect, 100 = complete kill) at 125 g/ha", "setting": "[1]; 125 g ai/ha, preemergence", "result": 65, "unit": "%"}, {"measurement": "Corn plant response rating (crop injury, 0 = no effect, 100 = complete kill) at 16 g/ha", "setting": "[1]; Preemergence, 16 g ai/ha", "result": 0, "unit": "%"}, {"measurement": "pest or weed control at 31 g/ha", "setting": "[2]; 31 g ai/ha, preemergence, scale 0 to 100", "result": 75, "unit": "%"}, {"measurement": "pest or weed control at 62 g/ha", "setting": "[2]; 62 g ai/ha, preemergence, scale 0 to 100", "result": 98, "unit": "%"}, {"measurement": "pest or weed control at 125 g/ha", "setting": "[2]; 125 g ai/ha, preemergence, scale 0 to 100", "result": 100, "unit": "%"}, {"measurement": "pest or weed control at 16 g/ha", "setting": "[2]; Preemergence, 16 g ai/ha, scale 0 to 100 (0 no effect, 100 complete control)", "result": 25, "unit": "%"}, {"measurement": "plant injury at 31 g/ha", "setting": "[3]; 31 g ai/ha, preemergence", "result": 85, "unit": "%"}, {"measurement": "plant injury at 62 g/ha", "setting": "[3]; 62 g ai/ha, preemergence", "result": 90, "unit": "%"}, {"measurement": "plant injury at 125 g/ha", "setting": "[3]; 125 g ai/ha, preemergence", "result": 90, "unit": "%"}, {"measurement": "plant injury at 16 g/ha", "setting": "[3]; Preemergence, 16 g ai/ha", "result": 70, "unit": "%"}, {"measurement": "pest or weed control at 31 g/ha", "setting": "[4]; 31 g ai/ha, preemergence", "result": 98, "unit": "%"}, {"measurement": "pest or weed control at 62 g/ha", "setting": "[4]; 62 g ai/ha, preemergence", "result": 90, "unit": "%"}, {"measurement": "pest or weed control at 125 g/ha", "setting": "[4]; 125 g ai/ha, preemergence", "result": 98, "unit": "%"}, {"measurement": "pest or weed control at 16 g/ha", "setting": "[4]; Preemergence, 16 g ai/ha", "result": 75, "unit": "%"}, {"measurement": "pest or weed control at 31 g/ha", "setting": "[5]; 31 g ai/ha, preemergence", "result": 70, "unit": "%"}, {"measurement": "pest or weed control at 62 g/ha", "setting": "[5]; 62 g ai/ha, preemergence", "result": 80, "unit": "%"}, {"measurement": "pest or weed control at 125 g/ha", "setting": "[5]; 125 g ai/ha, preemergence", "result": 85, "unit": "%"}, {"measurement": "pest or weed control at 16 g/ha", "setting": "[5]; Preemergence, 16 g ai/ha", "result": 55, "unit": "%"}, {"measurement": "pest or weed control at 31 g/ha", "setting": "[6]; 31 g ai/ha, preemergence", "result": 80, "unit": "%"}, {"measurement": "pest or weed control at 62 g/ha", "setting": "[6]; 62 g ai/ha, preemergence", "result": 85, "unit": "%"}, {"measurement": "pest or weed control at 125 g/ha", "setting": "[6]; 125 g ai/ha, preemergence", "result": 98, "unit": "%"}, {"measurement": "pest or weed control at 16 g/ha", "setting": "[6]; Preemergence, 16 g ai/ha", "result": 75, "unit": "%"}, {"measurement": "pest or weed control at 31 g/ha", "setting": "[7]; 31 g ai/ha, preemergence", "result": 0, "unit": "%"}, {"measurement": "pest or weed control at 62 g/ha", "setting": "[7]; 62 g ai/ha, preemergence", "result": 0, "unit": "%"}, {"measurement": "pest or weed control at 125 g/ha", "setting": "[7]; 125 g ai/ha, preemergence", "result": 40, "unit": "%"}, {"measurement": "pest or weed control at 16 g/ha", "setting": "[7]; Preemergence, 16 g ai/ha", "result": 0, "unit": "%"}, {"measurement": "pest or weed control at 31 g/ha", "setting": "[8]; 31 g ai/ha, preemergence", "result": 85, "unit": "%"}, {"measurement": "pest or weed control at 62 g/ha", "setting": "[8]; 62 g ai/ha, preemergence", "result": 85, "unit": "%"}, {"measurement": "pest or weed control at 125 g/ha", "setting": "[8]; 125 g ai/ha, preemergence", "result": 95, "unit": "%"}, {"measurement": "pest or weed control at 16 g/ha", "setting": "[8]; Preemergence, 16 g ai/ha", "result": 90, "unit": "%"}, {"measurement": "pest or weed control at 31 g/ha", "setting": "[9]; 31 g ai/ha, preemergence", "result": 100, "unit": "%"}, {"measurement": "pest or weed control at 62 g/ha", "setting": "[9]; 62 g ai/ha, preemergence", "result": 100, "unit": "%"}, {"measurement": "pest or weed control at 125 g/ha", "setting": "[9]; 125 g ai/ha, preemergence", "result": 100, "unit": "%"}, {"measurement": "pest or weed control at 16 g/ha", "setting": "[9]; Preemergence, 16 g ai/ha", "result": 98, "unit": "%"}, {"measurement": "pest or weed control at 31 g/ha", "setting": "[10]; 31 g ai/ha, preemergence", "result": 95, "unit": "%"}, {"measurement": "pest or weed control at 62 g/ha", "setting": "[10]; 62 g ai/ha, preemergence", "result": 95, "unit": "%"}, {"measurement": "pest or weed control at 125 g/ha", "setting": "[10]; 125 g ai/ha, preemergence", "result": 98, "unit": "%"}, {"measurement": "pest or weed control at 16 g/ha", "setting": "[10]; Preemergence, 16 g ai/ha", "result": 95, "unit": "%"}, {"measurement": "pest or weed control at 31 g/ha", "setting": "[11]; 31 g ai/ha, preemergence", "result": 85, "unit": "%"}, {"measurement": "pest or weed control at 62 g/ha", "setting": "[11]; 62 g ai/ha, preemergence", "result": 85, "unit": "%"}, {"measurement": "pest or weed control at 125 g/ha", "setting": "[11]; 125 g ai/ha, preemergence", "result": 90, "unit": "%"}, {"measurement": "pest or weed control at 16 g/ha", "setting": "[11]; Preemergence, 16 g ai/ha", "result": 80, "unit": "%"}, {"measurement": "plant injury at 31 g/ha", "setting": "[12]; 31 g ai/ha, preemergence", "result": 5, "unit": "%"}, {"measurement": "plant injury at 62 g/ha", "setting": "[12]; 62 g ai/ha, preemergence", "result": 35, "unit": "%"}, {"measurement": "plant injury at 125 g/ha", "setting": "[12]; 125 g ai/ha, preemergence", "result": 60, "unit": "%"}, {"measurement": "plant injury at 16 g/ha", "setting": "[12]; Preemergence, 16 g ai/ha", "result": 0, "unit": "%"}, {"measurement": "pest or weed control at 31 g/ha", "setting": "[13]; 31 g ai/ha, preemergence", "result": 90, "unit": "%"}, {"measurement": "pest or weed control at 62 g/ha", "setting": "[13]; 62 g ai/ha, preemergence", "result": 90, "unit": "%"}, {"measurement": "pest or weed control at 125 g/ha", "setting": "[13]; 125 g ai/ha, preemergence", "result": 90, "unit": "%"}, {"measurement": "pest or weed control at 16 g/ha", "setting": "[13]; Preemergence, 16 g ai/ha", "result": 60, "unit": "%"}, {"measurement": "pest or weed control at 31 g/ha", "setting": "[14]; 31 g ai/ha, preemergence", "result": 15, "unit": "%"}, {"measurement": "pest or weed control at 62 g/ha", "setting": "[14]; 62 g ai/ha, preemergence", "result": 50, "unit": "%"}, {"measurement": "pest or weed control at 125 g/ha", "setting": "[14]; 125 g ai/ha, preemergence", "result": 60, "unit": "%"}, {"measurement": "pest or weed control at 16 g/ha", "setting": "[14]; Preemergence, 16 g ai/ha", "result": 30, "unit": "%"}]}]}
